Measurements reported in the NIST ThermoML archive (doi:10.1021/je600565m).
Numbers after ± are expanded uncertainties.

Experiment: xn = mol fraction of the nth substance listed
Settings: 101 kPa, Liquid

CCO [ethanol] + O
Settings | mass density [kg/m3] | viscosity [mPa·s]
298.15 K, x2 = 0.0998 | 797.6 ± 0.34 | –
298.15 K, x2 = 0.2009 | – | 1.407 ± 0.033
298.15 K, x2 = 0.2018 | 810.78 ± 0.32 | –
298.15 K, x2 = 0.3001 | – | 1.558 ± 0.037
298.15 K, x2 = 0.3085 | 826.73 ± 0.3 | –
298.15 K, x2 = 0.4016 | – | 1.761 ± 0.042
298.15 K, x2 = 0.4145 | 843.26 ± 0.28 | –
298.15 K, x2 = 0.5001 | 858.65 ± 0.27 | 1.946 ± 0.046
298.15 K, x2 = 0.6 | – | 2.166 ± 0.051
298.15 K, x2 = 0.6205 | 885.56 ± 0.24 | –
298.15 K, x2 = 0.7 | – | 2.342 ± 0.056
298.15 K, x2 = 0.7005 | 904.69 ± 0.22 | –
298.15 K, x2 = 0.7992 | 933.6 ± 0.18 | –
298.15 K, x2 = 0.8 | – | 2.39 ± 0.057
298.15 K, x2 = 0.9 | – | 1.923 ± 0.046
298.15 K, x2 = 0.9051 | 965.51 ± 0.15 | –
318.15 K, x2 = 0.1 | 780.53 ± 0.36 | 0.848 ± 0.02
318.15 K, x2 = 0.2 | – | 0.951 ± 0.023
318.15 K, x2 = 0.201 | 793.6 ± 0.34 | –
318.15 K, x2 = 0.3001 | 807.71 ± 0.32 | 1.003 ± 0.024
318.15 K, x2 = 0.4004 | 823.81 ± 0.31 | –
318.15 K, x2 = 0.4036 | – | 1.09 ± 0.026
318.15 K, x2 = 0.5002 | – | 1.168 ± 0.028
318.15 K, x2 = 0.5003 | 840.31 ± 0.29 | –
318.15 K, x2 = 0.5998 | 863.31 ± 0.26 | –
318.15 K, x2 = 0.6 | – | 1.243 ± 0.031
318.15 K, x2 = 0.7 | – | 1.298 ± 0.032
318.15 K, x2 = 0.7001 | 888.76 ± 0.23 | –
318.15 K, x2 = 0.8001 | 919.19 ± 0.2 | –
318.15 K, x2 = 0.8007 | – | 1.293 ± 0.035
318.15 K, x2 = 0.9 | 952.47 ± 0.17 | 0.977 ± 0.024

CCOC(C)=O [ethyl acetate] + CCO
Settings | mass density [kg/m3] | viscosity [mPa·s]
298.15 K, x1 = 0.1 | 801.5 ± 0.33 | 0.848 ± 0.02
298.15 K, x1 = 0.1992 | 816.25 ± 0.32 | –
298.15 K, x1 = 0.2 | – | 0.707 ± 0.017
298.15 K, x1 = 0.3 | – | 0.614 ± 0.015
298.15 K, x1 = 0.3006 | 829.52 ± 0.3 | –
298.15 K, x1 = 0.3949 | 840.61 ± 0.29 | –
298.15 K, x1 = 0.4 | – | 0.56 ± 0.013
298.15 K, x1 = 0.5 | – | 0.513 ± 0.012
298.15 K, x1 = 0.5001 | 852.04 ± 0.28 | –
298.15 K, x1 = 0.5987 | 861.64 ± 0.27 | –
298.15 K, x1 = 0.6 | – | 0.488 ± 0.012
298.15 K, x1 = 0.7 | 870.79 ± 0.26 | 0.465 ± 0.011
298.15 K, x1 = 0.7981 | 879.06 ± 0.25 | –
298.15 K, x1 = 0.8 | – | 0.448 ± 0.011
298.15 K, x1 = 0.9 | 886.96 ± 0.24 | 0.434 ± 0.01
298.15 K, x1 = 0.9501 | 890.81 ± 0.24 | –
318.15 K, x1 = 0.1 | 783.09 ± 0.35 | 0.624 ± 0.015
318.15 K, x1 = 0.2 | – | 0.535 ± 0.013
318.15 K, x1 = 0.2001 | 796.45 ± 0.34 | –
318.15 K, x1 = 0.3 | 808.31 ± 0.33 | –
318.15 K, x1 = 0.3007 | – | 0.471 ± 0.012
318.15 K, x1 = 0.4 | – | 0.432 ± 0.01
318.15 K, x1 = 0.4001 | 819.37 ± 0.31 | –
318.15 K, x1 = 0.5 | 829.53 ± 0.3 | 0.412 ± 0.01
318.15 K, x1 = 0.6 | 838.75 ± 0.29 | –
318.15 K, x1 = 0.6003 | – | 0.387 ± 0.009
318.15 K, x1 = 0.7 | 847.18 ± 0.28 | –
318.15 K, x1 = 0.7006 | – | 0.374 ± 0.009
318.15 K, x1 = 0.8 | – | 0.364 ± 0.009
318.15 K, x1 = 0.8001 | 855.16 ± 0.28 | –
318.15 K, x1 = 0.8999 | 862.6 ± 0.27 | –
318.15 K, x1 = 0.9 | – | 0.36 ± 0.009

CCOC(C)=O [ethyl acetate] + O
Settings | mass density [kg/m3] | viscosity [mPa·s]
298.15 K, x2 = 0.0258 | – | 0.436 ± 0.01
298.15 K, x2 = 0.0269 | 895.32 ± 0.23 | –
298.15 K, x2 = 0.045 | – | 0.444 ± 0.011
298.15 K, x2 = 0.0469 | 896.13 ± 0.23 | –
298.15 K, x2 = 0.0722 | 897.09 ± 0.23 | –
298.15 K, x2 = 0.0748 | – | 0.456 ± 0.011
298.15 K, x2 = 0.0853 | – | 0.46 ± 0.011
298.15 K, x2 = 0.0892 | 897.9 ± 0.23 | –
298.15 K, x2 = 0.1045 | 898.48 ± 0.23 | –
298.15 K, x2 = 0.1053 | – | 0.468 ± 0.011
298.15 K, x2 = 0.1249 | 899.5 ± 0.23 | –
298.15 K, x2 = 0.1258 | – | 0.476 ± 0.011
318.15 K, x2 = 0.0249 | 870.81 ± 0.26 | –
318.15 K, x2 = 0.025 | – | 0.362 ± 0.01
318.15 K, x2 = 0.0496 | – | 0.368 ± 0.011
318.15 K, x2 = 0.0524 | 871.8 ± 0.26 | –
318.15 K, x2 = 0.075 | – | 0.373 ± 0.009
318.15 K, x2 = 0.0766 | 872.73 ± 0.26 | –
318.15 K, x2 = 0.0999 | – | 0.379 ± 0.01
318.15 K, x2 = 0.1003 | 873.94 ± 0.26 | –
318.15 K, x2 = 0.1254 | – | 0.385 ± 0.009
318.15 K, x2 = 0.1255 | 875.08 ± 0.25 | –
